In brackets after ≈: the same amount, converted by molar mass.
Columns and labels:
NDM-1 = target: T1, NDM-1 (Klebsiella pneumoniae, UniProt C7C422); test: In vitro inhibition assay (kinetic fluorescence-based activity assay), NDM-1; assay type: biochemical; details: Means and SD of at least two independent experiments
T1 construct: made in house
Protocol: (§1) Protein expression and purification. The expression of IMP-7, VIM-1, and NDM-1 was performed according to the protocol previously published by Klingler et al. (Klingler, F. M.; Wichelhaus, T. A.; Frank, D.; Cuesta-Bernal, J.; El-Delik, J.; Müller, H. F.; Sjuts, H.; Gottig, S.; Koenigs, A.; Pos, K. M.; et al. Approved Drugs Containing Thiols as Inhibitors of Metallo-β-Lactamases: Strategy to Combat Multidrug-Resistant Bacteria. J. Med. Chem. 2015, 58 (8), 3626-3630. https://doi.org/10.1021/jm501844d) with slight modifications.
(§2) In vitro inhibition assay. Activity assays for NDM-1, VIM-1, VIM-2 and IMP-7 were carried out, as described by Klingler et al. Final protein concentrations were 0.5 nM (NDM-1), 4.0 nM (VIM-1), and 0.1 nM (IMP-7) in a 50 mM HEPES buffer (pH 7.5, 0.01% Triton X-100) Substrate (Fluorocillin™ (Invitrogen, Darmstadt, Germany) was dissolved in assay buffer to a final concentration of 888 nM. Test compounds were dissolved and pre-diluted in DMSO (final concentration: 1%). In a black polystyrol 96-well plate (Corning) an amount of […] of the respective inhibitor solution at different concentrations was incubated with […] of respective protein containing buffer for 30 minutes at room temperature. […] of substrate solution was added. The readout of the emitted fluorescence was started immediately (45 s for 30 cycles) using a Tecan Infinite F200Pro (Tecan Group Ltd; excitation at 495 nm and emission at 525 nm). Blank controls were performed without enzyme. Positive controls were performed with enzyme but without inhibitor. The inhibitory activity of each test compound was measured in three independent experiments. For calculation of IC50 values, data obtained from measurements with eight different inhibitor concentrations were used. For the evaluation of the sigmoidal dose response equation (variable slope with four parameters) GraphPad Prism 5 (GraphPad Software, La Jolla, Calif., USA) was used.

IMP-7 = IMP-7 (Pseudomonas aeruginosa, UniProt Q93AU3); test: In vitro inhibition assay (kinetic fluorescence-based activity assay), IMP-7; assay type: biochemical; details: Means and SD of at least two independent experiments
Protocol: as §1, §2

VIM-1 = target: T2, VIM-1 (Pseudomonas aeruginosa, UniProt A0A0F7KYQ8); test: In vitro inhibition assay (kinetic fluorescence-based activity assay), VIM-1; assay type: biochemical; details: Means and SD of at least two independent experiments
T2 construct: made in house
Protocol: as §1, §2

MMP-1 = MMP-1 (Homo sapiens, UniProt P03956); test: Selectivity assay on MMP-1; assay type: biochemical; details: read-out: % Inh. @ 100 μM MMP-1
Protocol: (§3) Cytotoxicity assays and Selectivity assays. Cytotoxicity assays on HepG2, HEK293 and A549 cells and selectivity assays on various MMPs were performed as described previously (Haupenthal, J.; Baehr, C.; Zeuzem, S.; Piiper, A. RNAse A-like Enzymes in Serum Inhibit the Anti-Neoplastic Activity of SiRNA Targeting Polo-like Kinase 1. Int. J. Cancer 2007, 121 (1), 206-210. https://doi.org/10.1002/ijc.22665).

MMP-2 = MMP-2 (Homo sapiens, UniProt P08253); test: Selectivity assay on MMP-2; assay type: biochemical; details: read-out: % Inh. @ 100 μM MMP-2
Protocol: as §3

MMP-3 = MMP-3 (Homo sapiens, UniProt P08254); test: Selectivity assay on MMP-3; assay type: biochemical; details: read-out: % Inh. @ 100 μM MMP-3
Protocol: as §3

MMP-7 = MMP-7 (Homo sapiens, UniProt P09237); test: Selectivity assay on MMP-7; assay type: biochemical; details: read-out: % Inh. @ 100 μM MMP-7
Protocol: as §3

MMP-8 = MMP-8 (Homo sapiens, UniProt P22894); test: Selectivity assay on MMP-8; assay type: biochemical; details: read-out: % Inh. @ 100 μM MMP-8
Protocol: as §3

MMP-14 = MMP-14 (Homo sapiens, UniProt P50281); test: Selectivity assay on MMP-14; assay type: biochemical; details: read-out: % Inh. @ 100 μM MMP-14
Protocol: as §3

[1] = Cytotoxicity assay on HepG2 cells; assay type: cell-based; details: human
Protocol: as §3

[2] = Cytotoxicity assay on HEK293 cells; assay type: cell-based; details: human
Protocol: as §3

[3] = Cytotoxicity assay on A549 cells; assay type: cell-based; details: human
Protocol: as §3

[4] = system: different isolates from E. coli and P. aeruginosa; test: MIC assay, intrinsic antibacterial activity; assay type: cell-based; details: compound alone
[5] = system: imipenem-resistant P. aeruginosa producing VIM-2; test: Imipenem MIC with compound at single concentration; assay type: cell-based; details: compound at single concentration 1024 μg/mL
E. coli producing NDM-1 = test: MIC of imipenem in the presence of HIPS1686; assay type: cell-based
E. coli NDM-1 (T2359) = test: Checkerboard assay with imipenem, E. coli NDM-1 (T2359); assay type: cell-based; details: Table 4, median of three experiments
Protocol: Fractional inhibitory concentration index (FICI). The checkerboard assay was performed to test for synergy in vitro. […] FICIs≤0.5 were defined as synergistic; FICIs from >0.5 to […] were defined as additive; FICIs from 1 to ≤4 were defined as indifferent and FICIs>4 were defined as antagonistic (Doern, C. D. When Does 2 plus 2 Equal 5? A Review of Antimicrobial Synergy Testing. J. Clin. Microbial. 2014, 52 (12), 4124-4128. https://doi.org/10.1128/JCM.01121-14).

[6] = system: K. pneumoniae NDM-1 (T2301); test: MIC assay, clinical isolate; assay type: cell-based; details: +HIPS1686 256 mg/L
E. cloacae NDM-1 (T2311) = test: MIC assay, clinical isolate; assay type: cell-based; details: +HIPS1686 256 mg/L
[7] = system: S. marcescens NDM-1 (T2352); test: MIC assay, clinical isolate; assay type: cell-based; details: +HIPS1686 256 mg/L; S. marcescens NDM-1 (T2352)
E. coli NDM-5 (T2351) = test: MIC assay, clinical isolate; assay type: cell-based; details: +HIPS1686 256 mg/L
E. cloacae VIM-1 (T2353) = test: MIC assay, clinical isolate; assay type: cell-based; details: +HIPS1686 256 mg/L
[8] = system: P. aeruginosa IMP-1 (T2325); test: MIC assay, clinical isolate; assay type: cell-based; details: +HIPS1686 256 mg/L; P. aeruginosa IMP-1 (T2325)
E. cloacae GIM-1 (T2218) = test: MIC assay, clinical isolate; assay type: cell-based; details: +HIPS1686 256 mg/L; E. cloacae GIM-1 (T2218)

T1 sequence (C7C422 29-270, looked up, species assumed): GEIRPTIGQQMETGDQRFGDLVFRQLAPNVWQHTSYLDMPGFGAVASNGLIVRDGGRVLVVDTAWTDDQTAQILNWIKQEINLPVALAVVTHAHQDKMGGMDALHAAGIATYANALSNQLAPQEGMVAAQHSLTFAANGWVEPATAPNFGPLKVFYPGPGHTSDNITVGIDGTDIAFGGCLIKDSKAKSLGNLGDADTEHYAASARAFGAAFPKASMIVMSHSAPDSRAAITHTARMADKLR
IMP-7, sequence (Q93AU3 entry or part of it): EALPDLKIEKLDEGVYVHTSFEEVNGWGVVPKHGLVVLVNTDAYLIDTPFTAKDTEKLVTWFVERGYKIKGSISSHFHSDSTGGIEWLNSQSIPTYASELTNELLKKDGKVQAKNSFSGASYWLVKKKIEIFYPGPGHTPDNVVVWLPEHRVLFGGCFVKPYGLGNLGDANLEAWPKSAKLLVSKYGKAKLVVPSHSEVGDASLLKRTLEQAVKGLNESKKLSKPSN
MMP-8, sequence (P22894 101-467): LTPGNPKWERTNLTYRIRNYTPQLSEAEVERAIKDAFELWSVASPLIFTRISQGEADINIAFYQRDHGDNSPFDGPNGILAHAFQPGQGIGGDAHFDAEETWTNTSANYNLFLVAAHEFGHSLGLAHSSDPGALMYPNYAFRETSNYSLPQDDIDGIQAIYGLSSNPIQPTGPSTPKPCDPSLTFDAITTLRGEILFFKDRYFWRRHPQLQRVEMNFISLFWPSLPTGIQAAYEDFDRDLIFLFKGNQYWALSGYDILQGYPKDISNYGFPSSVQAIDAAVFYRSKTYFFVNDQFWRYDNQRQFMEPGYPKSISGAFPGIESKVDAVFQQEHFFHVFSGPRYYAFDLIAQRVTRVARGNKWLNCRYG
MMP-3, sequence (P08254 100-477): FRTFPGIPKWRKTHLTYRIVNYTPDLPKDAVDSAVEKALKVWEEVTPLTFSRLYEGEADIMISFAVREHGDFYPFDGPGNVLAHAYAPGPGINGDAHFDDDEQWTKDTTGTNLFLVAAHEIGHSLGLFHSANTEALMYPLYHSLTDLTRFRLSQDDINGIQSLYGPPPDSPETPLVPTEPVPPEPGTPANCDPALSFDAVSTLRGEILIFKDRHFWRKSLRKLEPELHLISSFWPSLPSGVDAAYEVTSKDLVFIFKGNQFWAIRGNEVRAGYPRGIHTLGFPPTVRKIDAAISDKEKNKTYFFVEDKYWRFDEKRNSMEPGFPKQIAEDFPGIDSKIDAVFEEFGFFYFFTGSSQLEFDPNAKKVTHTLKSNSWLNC
MMP-7, sequence (P09237 95-267): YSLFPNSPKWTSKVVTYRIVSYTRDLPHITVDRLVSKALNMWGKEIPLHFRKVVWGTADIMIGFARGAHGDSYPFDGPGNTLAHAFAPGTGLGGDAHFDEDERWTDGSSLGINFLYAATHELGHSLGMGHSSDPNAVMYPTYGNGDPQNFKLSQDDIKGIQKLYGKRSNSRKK
MMP-2, sequence (P08253 110-660): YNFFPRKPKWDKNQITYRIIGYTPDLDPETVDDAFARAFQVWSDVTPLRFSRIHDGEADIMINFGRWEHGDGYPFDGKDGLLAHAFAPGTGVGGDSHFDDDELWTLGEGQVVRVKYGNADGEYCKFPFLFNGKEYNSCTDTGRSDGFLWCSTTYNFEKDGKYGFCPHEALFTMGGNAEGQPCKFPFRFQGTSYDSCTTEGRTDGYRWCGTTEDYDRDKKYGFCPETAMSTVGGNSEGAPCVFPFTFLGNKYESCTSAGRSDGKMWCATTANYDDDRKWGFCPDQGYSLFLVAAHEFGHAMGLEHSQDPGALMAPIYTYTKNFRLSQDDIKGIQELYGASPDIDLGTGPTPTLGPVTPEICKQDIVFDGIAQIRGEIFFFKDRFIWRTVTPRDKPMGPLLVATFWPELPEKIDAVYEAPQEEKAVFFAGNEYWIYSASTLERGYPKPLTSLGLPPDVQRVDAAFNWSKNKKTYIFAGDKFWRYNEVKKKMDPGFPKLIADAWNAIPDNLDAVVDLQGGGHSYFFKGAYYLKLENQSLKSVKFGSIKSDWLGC
MMP-1, sequence (P03956 100-469): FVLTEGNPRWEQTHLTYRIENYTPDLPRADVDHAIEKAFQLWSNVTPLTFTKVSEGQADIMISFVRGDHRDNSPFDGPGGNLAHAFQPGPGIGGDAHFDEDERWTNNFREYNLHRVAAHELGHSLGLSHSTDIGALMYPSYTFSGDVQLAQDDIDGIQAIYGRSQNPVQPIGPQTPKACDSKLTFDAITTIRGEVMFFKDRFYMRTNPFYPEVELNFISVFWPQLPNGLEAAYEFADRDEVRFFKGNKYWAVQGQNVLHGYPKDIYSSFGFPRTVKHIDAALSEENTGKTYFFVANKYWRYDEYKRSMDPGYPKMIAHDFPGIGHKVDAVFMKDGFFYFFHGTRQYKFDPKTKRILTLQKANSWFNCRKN

O=C(CCS)Nc1ccc(Cl)c(Cl)c1 [HIPS1447, N-(3,4-Dichlorophenyl)-3-mercaptopropanamide]
IC50 (NDM-1): 1.3 µM | IC50 (IMP-7): 5 ± 0.6 µM | IC50 (VIM-1): 0.1 µM | inhibition at 100 µM (MMP-1): < 10% | inhibition at 100 µM (MMP-2): 15.8 ± 13.5% | inhibition at 100 µM (MMP-3): < 10% | inhibition at 100 µM (MMP-7): < 10% | inhibition at 100 µM (MMP-8): 38.2 ± 24.8% | inhibition at 100 µM (MMP-14): 17.9 ± 7.8% | IC50 [1]: > 100 µM | IC50 [2]: > 100 µM | IC50 [3]: > 100 µM | intrinsic antibacterial activity (MIC) [4]: no intrinsic antibacterial activity | fold decrease of imipenem MIC value [5]: 64 fold

O=C(CCS)Nc1ccccc1C(=O)O [HIPS1686]
IC50 (NDM-1): 3.4 ± 0.1 µM | IC50 (IMP-7): 4.1 ± 0.3 µM | IC50 (VIM-1): 2.2 ± 0.2 µM | intrinsic antibacterial activity (MIC) [4]: no intrinsic antibacterial activity | MIC (E. coli producing NDM-1; Escherichia coli): > 1020 µg/mL | MIC of imipenem in the presence of HIPS1686 (E. coli producing NDM-1; HIPS1686 constant 64 μg/ml): 4 µg/mL | MIC of imipenem in the presence of HIPS1686 (E. coli producing NDM-1; HIPS1686 constant 256 μg/ml): 1 µg/mL | MIC of imipenem in the presence of HIPS1686 (E. coli producing NDM-1; HIPS1686 constant 1024 μg/ml): 1 µg/mL | Imipenem MIC (E. coli NDM-1 (T2359); +4 mg/L HIPS1686): 64 µg/mL | Imipenem MIC (E. coli NDM-1 (T2359); +8 mg/L HIPS1686): 64 µg/mL | Imipenem MIC (E. coli NDM-1 (T2359); +16 mg/L HIPS1686): 64 µg/mL | Imipenem MIC (E. coli NDM-1 (T2359); +32 mg/L HIPS1686): 16 µg/mL | Imipenem MIC (E. coli NDM-1 (T2359); +64 mg/L HIPS1686): 8 µg/mL | Imipenem MIC (E. coli NDM-1 (T2359); +128 mg/L HIPS1686): 2 µg/mL | Imipenem MIC (E. coli NDM-1 (T2359); +256 mg/L HIPS1686): 2 µg/mL | MIC (mg/L) Imipenem (+HIPS1686 256 mg/L) [6]: 1 mg/L (≈ 4.44 µM) | MIC (mg/L) Imipenem (+HIPS1686 256 mg/L) (E. cloacae NDM-1 (T2311)): 1 mg/L (≈ 4.44 µM) | MIC (mg/L) Imipenem (+HIPS1686 256 mg/L) [7]: 4 mg/L (≈ 17.8 µM) | MIC (mg/L) Imipenem (+HIPS1686 256 mg/L) (E. coli NDM-5 (T2351)): 2 mg/L (≈ 8.88 µM) | MIC (mg/L) Imipenem (+HIPS1686 256 mg/L) (E. cloacae VIM-1 (T2353)): 4 mg/L (≈ 17.8 µM) | MIC (mg/L) Imipenem (+HIPS1686 256 mg/L) [8]: 32 mg/L (≈ 142 µM) | MIC (mg/L) Imipenem (+HIPS1686 256 mg/L) (E. cloacae GIM-1 (T2218)): 0.5 mg/L (≈ 2.22 µM)
